# What was measured:
# Assay type in all cases: physicochemical
# [1] = Stability analysis of raw API by stability indicating HPLC method; settings: for Assay (%) HPLC / Percentage Drop (%) HPLC / loss in 3 Months: raw API; for Assay (%) HPLC / Percentage Drop (%) HPLC: after 3 Months
# Source text: (§1) In both studies the * Initial denotes the results of the samples tested at the time of receipt of the API from the supplier.
# [2] = Assay (%) test of APIs in cream, stability study, HPLC method
# Procedure: The stability of the product is confirmed by the stability studies performed for 3/6 months as per ICH guidelines.
# APIs-stability experiments were carried out (see tables 3-20) using several products that are representative of the present invention. Tests were carried out to observe (or measure as appropriate) the physical appearance of the product, the pH value and assay of the APIs over a period of time. […] Betamethasone Valerate—0.12% (w/w) • ii. Fluticasone Propionate—0.05% (w/w) • iii. Mometasone Furoate—0.1% (w/w) • iv. Dexamethasone Acetate—0.1% (w/w) • v. Hydrocortisone Acetate—1.0% (w/w) • vi. Clobetasol Propionate—0.05% (w/w) • vii. Beclomethasone Dipropionate—0.025% (w/w) • viii. Betamethasone Dipropionate—0.05% (w/w) wherein all percentages are with respect to the final formulation.
# The product used for the Stability Studies tests contained approximately 10% extra APIs (overages).
# [3] = Stability analysis of raw API by titration method (BP); settings: after 3 Months
# Source text: as §1
smiles,measurement,setting,value
CC(=O)O[C@H]1C[C@@]2(C)[C@@H](C[C@@H](O)[C@H]3[C@@]4(C)CC[C@@H](O)[C@@H](C)[C@@H]4CC[C@@]32C)/C1=C(\CCC=C(C)C)C(=O)O [Fusidic acid],Initial (%),"[1]; raw API tested at the time of receipt from the supplier, method not stated",100.6%
same,Assay (%) HPLC,[1]; 45° C. (C) closed Petri dish,92.12%
same,Percentage Drop (%) HPLC,[1]; 45° C. (C) closed Petri dish,8.48%
same,Assay (%) HPLC,[1]; 45° C. (O) open Petri dish,89.52%
same,Percentage Drop (%) HPLC,[1]; 45° C. (O) open Petri dish,11.08%
same,loss in 3 Months,[1]; 45° C. (open condition),about 11%
same,Assay (%) HPLC,[1]; RT (C) closed Petri dish,94.37%
same,Percentage Drop (%) HPLC,[1]; RT (C) closed Petri dish,6.23%
same,Assay (%) HPLC,[1]; RT (O) open Petri dish,92.93%
same,Percentage Drop (%) HPLC,[1]; RT (O) open Petri dish,7.67%
same,loss in 3 Months,[1]; room temperature (open condition),about 7.7%
same,"stability as an API, Sodium Fusidate compared with Fusidic acid","[1]; raw APIs, Tables 1 and 2",deteriorates more rapidly than Sodium Fusidate
same,Assay (%),"[2]; in cream Batch No. HAS-01, 25° C. 60% RH, 1st Month",108.50%
same,Assay (%),"[2]; in cream Batch No. HAS-01, 25° C. 60% RH, 2nd Month",108.44%
same,Assay (%),"[2]; in cream Batch No. HAS-01, 25° C. 60% RH, 3rd Month",108.36%
same,Assay (%),"[2]; in cream Batch No. HAS-01, 30° C. 65% RH, 1st Month",108.51%
same,Assay (%),"[2]; in cream Batch No. HAS-01, 30° C. 65% RH, 2nd Month",108.42%
same,Assay (%),"[2]; in cream Batch No. HAS-01, 30° C. 65% RH, 3rd Month",108.32%
same,Assay (%),"[2]; in cream Batch No. HAS-01, 40° C. 75% RH, 1st Month",108.48%
same,Assay (%),"[2]; in cream Batch No. HAS-01, 40° C. 75% RH, 2nd Month",108.34%
same,Assay (%),"[2]; in cream Batch No. HAS-01, 40° C. 75% RH, 3rd Month",108.20%
same,Assay (%),"[2]; in cream Batch No. HAS-01, Freezthaw, 1st Month",108.31%
same,Assay (%),"[2]; in cream Batch No. HAS-01, Initial",108.52%
same,Assay (%),"[2]; in cream Batch No. HAS-01, Temperature cycling, 1st Month",108.40%
same,Assay (%),"[2]; in cream Batch No. SBV-01, 25° C. 60% RH, 1st Month",108.54%
same,Assay (%),"[2]; in cream Batch No. SBV-01, 25° C. 60% RH, 2nd Month",108.42%
same,Assay (%),"[2]; in cream Batch No. SBV-01, 25° C. 60% RH, 3rd Month",108.40%
same,Assay (%),"[2]; in cream Batch No. SBV-01, 30° C. 65% RH, 1st Month",108.53%
same,Assay (%),"[2]; in cream Batch No. SBV-01, 30° C. 65% RH, 2nd Month",108.41%
same,Assay (%),"[2]; in cream Batch No. SBV-01, 30° C. 65% RH, 3rd Month",108.36%
same,Assay (%),"[2]; in cream Batch No. SBV-01, 40° C. 75% RH, 1st Month",108.46%
same,Assay (%),"[2]; in cream Batch No. SBV-01, 40° C. 75% RH, 2nd Month",108.16%
same,Assay (%),"[2]; in cream Batch No. SBV-01, 40° C. 75% RH, 3rd Month",108.11%
same,Assay (%),"[2]; in cream Batch No. SBV-01, Freezthaw, 1st Month",108.01%
same,Assay (%),"[2]; in cream Batch No. SBV-01, Initial",108.57%
same,Assay (%),"[2]; in cream Batch No. SBV-01, Temperature cycling, 1st Month",107.53%
same,Assay (%),"[2]; in cream Batch No. SFB-01, 25° C. 60% RH, 1st Month",108.22%
same,Assay (%),"[2]; in cream Batch No. SFB-01, 25° C. 60% RH, 2nd Month",108.18%
same,Assay (%),"[2]; in cream Batch No. SFB-01, 25° C. 60% RH, 3rd Month",108.15%
same,Assay (%),"[2]; in cream Batch No. SFB-01, 30° C. 65% RH, 1st Month",108.25%
same,Assay (%),"[2]; in cream Batch No. SFB-01, 30° C. 65% RH, 2nd Month",108.22%
same,Assay (%),"[2]; in cream Batch No. SFB-01, 30° C. 65% RH, 3rd Month",108.18%
same,Assay (%),"[2]; in cream Batch No. SFB-01, 40° C. 75% RH, 1st Month",108.25%
same,Assay (%),"[2]; in cream Batch No. SFB-01, 40° C. 75% RH, 2nd Month",108.20%
same,Assay (%),"[2]; in cream Batch No. SFB-01, 40° C. 75% RH, 3rd Month",108.12%
same,Assay (%),"[2]; in cream Batch No. SFB-01, Freezthaw, 1st Month",108.11%
same,Assay (%),"[2]; in cream Batch No. SFB-01, Initial",108.28%
same,Assay (%),"[2]; in cream Batch No. SFB-01, Temperature cycling, 1st Month",108.23%
same,Assay (%),"[2]; in cream Batch No. SFC-01, 25° C. 60% RH, 1st Month",108.64%
same,Assay (%),"[2]; in cream Batch No. SFC-01, 25° C. 60% RH, 2nd Month",108.52%
same,Assay (%),"[2]; in cream Batch No. SFC-01, 25° C. 60% RH, 3rd Month",108.48%
same,Assay (%),"[2]; in cream Batch No. SFC-01, 25° C. 60% RH, 6th Month",108.38%
same,Assay (%),"[2]; in cream Batch No. SFC-01, 30° C. 65% RH, 1st Month",108.53%
same,Assay (%),"[2]; in cream Batch No. SFC-01, 30° C. 65% RH, 2nd Month",108.31%
same,Assay (%),"[2]; in cream Batch No. SFC-01, 30° C. 65% RH, 3rd Month",108.26%
same,Assay (%),"[2]; in cream Batch No. SFC-01, 30° C. 65% RH, 6th Month",108.22%
same,Assay (%),"[2]; in cream Batch No. SFC-01, 40° C. 75% RH, 1st Month",108.56%
same,Assay (%),"[2]; in cream Batch No. SFC-01, 40° C. 75% RH, 2nd Month",108.36%
same,Assay (%),"[2]; in cream Batch No. SFC-01, 40° C. 75% RH, 3rd Month",108.21%
same,Assay (%),"[2]; in cream Batch No. SFC-01, 40° C. 75% RH, 6th Month",108.18%
same,Assay (%),"[2]; in cream Batch No. SFC-01, Freezthaw, 1st Month",108.21%
same,Assay (%),"[2]; in cream Batch No. SFC-01, Initial",108.68%
same,Assay (%),"[2]; in cream Batch No. SFC-01, Temperature cycling, 1st Month",108.10%
same,Assay (%),"[2]; in cream Batch No. SFD-01, 25° C. 60% RH, 1st Month",108.60%
same,Assay (%),"[2]; in cream Batch No. SFD-01, 25° C. 60% RH, 2nd Month",108.54%
same,Assay (%),"[2]; in cream Batch No. SFD-01, 25° C. 60% RH, 3rd Month",108.46%
same,Assay (%),"[2]; in cream Batch No. SFD-01, 30° C. 65% RH, 1st Month",108.63%
same,Assay (%),"[2]; in cream Batch No. SFD-01, 30° C. 65% RH, 2nd Month",108.52%
same,Assay (%),"[2]; in cream Batch No. SFD-01, 30° C. 65% RH, 3rd Month",108.32%
same,Assay (%),"[2]; in cream Batch No. SFD-01, 40° C. 75% RH, 1st Month",108.58%
same,Assay (%),"[2]; in cream Batch No. SFD-01, 40° C. 75% RH, 2nd Month",108.44%
same,Assay (%),"[2]; in cream Batch No. SFD-01, 40° C. 75% RH, 3rd Month",108.30%
same,Assay (%),"[2]; in cream Batch No. SFD-01, Freezthaw, 1st Month",108.41%
same,Assay (%),"[2]; in cream Batch No. SFD-01, Initial",108.62%
same,Assay (%),"[2]; in cream Batch No. SFD-01, Temperature cycling, 1st Month",108.52%
same,Assay (%),"[2]; in cream Batch No. SFM-01, 25° C. 60% RH, 1st Month",108.24%
same,Assay (%),"[2]; in cream Batch No. SFM-01, 25° C. 60% RH, 2nd Month",108.22%
same,Assay (%),"[2]; in cream Batch No. SFM-01, 25° C. 60% RH, 3rd Month",108.20%
same,Assay (%),"[2]; in cream Batch No. SFM-01, 25° C. 60% RH, 6th Month",107.95%
same,Assay (%),"[2]; in cream Batch No. SFM-01, 30° C. 65% RH, 1st Month",108.23%
same,Assay (%),"[2]; in cream Batch No. SFM-01, 30° C. 65% RH, 2nd Month",108.21%
same,Assay (%),"[2]; in cream Batch No. SFM-01, 30° C. 65% RH, 3rd Month",108.16%
same,Assay (%),"[2]; in cream Batch No. SFM-01, 30° C. 65% RH, 6th Month",107.92%
same,Assay (%),"[2]; in cream Batch No. SFM-01, 40° C. 75% RH, 1st Month",108.26%
same,Assay (%),"[2]; in cream Batch No. SFM-01, 40° C. 75% RH, 2nd Month",108.14%
same,Assay (%),"[2]; in cream Batch No. SFM-01, 40° C. 75% RH, 3rd Month",108.08%
same,Assay (%),"[2]; in cream Batch No. SFM-01, 40° C. 75% RH, 6th Month",107.89%
same,Assay (%),"[2]; in cream Batch No. SFM-01, Freezthaw, 1st Month",108.11%
same,Assay (%),"[2]; in cream Batch No. SFM-01, Initial",108.27%
same,Assay (%),"[2]; in cream Batch No. SFM-01, Temperature cycling, 1st Month",107.63%
same,Assay (%),"[2]; in cream Batch No. SPC-01, 25° C. 60% RH, 1st Month",108.30%
same,Assay (%),"[2]; in cream Batch No. SPC-01, 25° C. 60% RH, 2nd Month",108.24%
same,Assay (%),"[2]; in cream Batch No. SPC-01, 25° C. 60% RH, 3rd Month",108.15%
same,Assay (%),"[2]; in cream Batch No. SPC-01, 25° C. 60% RH, 6th Month",108.08%
same,Assay (%),"[2]; in cream Batch No. SPC-01, 30° C. 65% RH, 1st Month",108.31%
same,Assay (%),"[2]; in cream Batch No. SPC-01, 30° C. 65% RH, 2nd Month",108.32%
same,Assay (%),"[2]; in cream Batch No. SPC-01, 30° C. 65% RH, 3rd Month",108.22%
same,Assay (%),"[2]; in cream Batch No. SPC-01, 30° C. 65% RH, 6th Month",108.11%
same,Assay (%),"[2]; in cream Batch No. SPC-01, 40° C. 75% RH, 1st Month",108.33%
same,Assay (%),"[2]; in cream Batch No. SPC-01, 40° C. 75% RH, 2nd Month",108.24%
same,Assay (%),"[2]; in cream Batch No. SPC-01, 40° C. 75% RH, 3rd Month",108.10%
same,Assay (%),"[2]; in cream Batch No. SPC-01, 40° C. 75% RH, 6th Month",108.01%
same,Assay (%),"[2]; in cream Batch No. SPC-01, Freezthaw, 1st Month",108.22%
same,Assay (%),"[2]; in cream Batch No. SPC-01, Initial",108.38%
same,Assay (%),"[2]; in cream Batch No. SPC-01, Temperature cycling, 1st Month",108.28%
same,Assay (%) Titration,[3]; 45° C. (C) closed Petri dish,99.10%
same,Percentage Drop (%) Titration,[3]; 45° C. (C) closed Petri dish,1.50%
same,Assay (%) Titration,[3]; 45° C. (O) open Petri dish,98.52%
same,Percentage Drop (%) Titration,[3]; 45° C. (O) open Petri dish,2.08%
same,Assay (%) Titration,[3]; RT (C) closed Petri dish,99.02%
same,Percentage Drop (%) Titration,[3]; RT (C) closed Petri dish,1.58%
same,Assay (%) Titration,[3]; RT (O) open Petri dish,99.21%
same,Percentage Drop (%) Titration,[3]; RT (O) open Petri dish,1.39%

# From US9066861B2 (priority 2009, dated 2015)
